From patent publication US20140349962A1, “RAPID TWO-STEP SYNTHESIS OF ANTI-COAGULANTS” (Massachusetts Institute of Technology, priority 2013, published 2014)

What was measured:
[1] = molecular target: PF4 (Homo sapiens, UniProt P02776); details: expected because compound is free of 2-O sulfated iduronic acid residues
[2] = molecular target: anti-thrombin III (ATIII) (Homo sapiens, UniProt P01008); details: compared to in vitro modified commercial heparin
Experimental: PAP^35S-radiolabeled N-deacetylate N-sulfate derivatives of non-sulfated N-acetyl heparosan (HS) polysaccharides (10, 000 counts) was reacted with […] ATIII. Complex formation was analyzed by non-denaturing gel electrophoresis (4% polyacrylamide). The mobility of radiolabeled N-deacetylate N-sulfate derivatives of non-sulfated N-acetyl heparosan (HS) polysaccharides was compared with and without ATIII.
Heparin-ATIII binding buffer contained 12% glycerol, 20 mM Tris-HCl (pH 7.9), 100 mM KCl, 1 mM EDTA, and 1 mM DTT. For a typical 20 μl binding reaction, radiolabeled polysaccharide (10,000 cpm) was mixed with AT-III (1 μg) in the binding buffer. The reaction mixture was incubated at room temperature (23° C.) for 20 min and was then applied to a 4.5% native polyacrylamide gel (with 0.1% of bis-acrylamide). The gel buffer was 10 mM Tris (pH 7.4) and 1 mM EDTA, and the electrophoresis buffer was 40 mM Tris (pH 8.0), 40 mM acetic acid, 1 mM EDTA. The gel was run at 6 volts/cm for 1-2 hours with an SE 250 Mighty Small II gel apparatus (Hoefer Scientific Instruments, San Francisco). After electrophoresis, the gel was transferred to 3 MM paper and dried under vacuum. The dried gel was autoradiographed by a PhosphorImager 445S1 (Molecular Dynamics, Sunnyvale, Calif.). The image was analyzed with NIH Image 1.60 and band intensities were evaluated.

[3] = system: Human factor Xa; details: approximately; heparin-dependent factor Xa inhibition, commercial heparin as standard
Experimental: Human factor Xa (10.4 mg/ml 50% glycerol, 820 units/mg) (Hematologic Technologies, Essex Junction, Vt.) was used for assay. Factor Xa was diluted 1:200 with PBS containing 1 mg of bovine serum albumin (4 units/ml and 15 units/ml, respectively). ATIII (2.5 mg/ml) (GlycoMed, CA) was diluted 1:200 to give a 2×10^7 M stock solution. The chromogenic substrate S-2765 was from Chromogenix (West Chester, Ohio) and the stock solution of 1 mM with 1 mg/ml Polybrene in water was prepared. Heparin (174 international units/mg, Sigma) was used as a standard. The N-deacetylated N-sulfated polysaccharide product was used for factor Xa studies (10 ng). The protocol involved adding 25 μl of ATIII (2×10 7 M) to 25 μl of a serial dilution of heparin standards or N-deacetylated N-sulfated polysaccharide in Tris-EDTA (50 mM Tris, 7.5 mM EDTA, and 175 mM NaCl (pH 8.4)) buffer. The reaction was incubated at 37° C. for 75 seconds. Factor Xa (25 μl, 4 units/ml) was added. After incubating at 37° C. for 195 seconds, 25 μl of S-2765 was added. The absorbance at 405 nm was read every minute for 10 minutes using a Beckman UV spectrometer.

Sequence of anti-thrombin III (ATIII) (P01008 33-464, species assumed): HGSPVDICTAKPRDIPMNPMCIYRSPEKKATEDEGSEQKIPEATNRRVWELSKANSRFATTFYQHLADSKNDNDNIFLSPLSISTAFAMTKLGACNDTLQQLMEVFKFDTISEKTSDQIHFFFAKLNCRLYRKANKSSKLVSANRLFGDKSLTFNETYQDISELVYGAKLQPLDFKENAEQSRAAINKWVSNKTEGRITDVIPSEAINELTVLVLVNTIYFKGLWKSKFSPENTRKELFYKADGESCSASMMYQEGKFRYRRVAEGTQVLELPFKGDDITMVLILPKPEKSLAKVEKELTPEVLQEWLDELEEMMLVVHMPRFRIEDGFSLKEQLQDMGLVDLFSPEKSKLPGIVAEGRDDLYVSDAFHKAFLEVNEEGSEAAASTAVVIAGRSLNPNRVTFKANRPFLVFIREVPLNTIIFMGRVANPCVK
Sequence of PF4 (P02776 32-101): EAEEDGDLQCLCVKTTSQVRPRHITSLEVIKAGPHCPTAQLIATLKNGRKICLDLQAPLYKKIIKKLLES

## N-deacetylate N-sulfate derivatives of non-sulfated N-acetyl heparosan (HS) polysaccharide [Formula I]
[1]
  ability to bind to PF4: reduced ability to bind to PF4
[2]
  percentage of compound bound to ATIII compared to commercial heparin: greater percentage
[3]
  specific activity relative to commercial heparin: 4-5 times
